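Method: 48-hour compound exposure of cells in 96-well plates, five concentrations, linear interpolation of endpoints. Here, GI50 denotes the concentration required for 50% inhibition of growth. At the TGI there is no net growth.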
Test system: MALME-3M melanoma
Experiment: NCI tumour cell line growth inhibition, 48 h

Row | SMILES | TGI [µM] | GI50 [µM]
1 | N#CC1(C2SCCS2=O)C2=C(C(=O)c3ccccc3C2=O)N2CCCC21 (centres undefined) | 1.27 | 
2 | Cc1n(Cc2ccc3ccccc3c2)cc[n+]1Cc1ccc2ccccc2c1 | 2.56 | 0.627
3 | O=C1/C(=C\c2cccn2Cc2ccccc2)c2ccccc2N1c1c(Cl)cccc1Cl | > 100 | 3.22
4 | Cc1sc2nc(NCCc3c[nH]c4ccc(Cl)cc34)[nH]c(=O)c2c1C | 7.45 | 2.38
5 | COc1cc(/C=C2\C(=O)Nc3ccc(F)cc32)cc(OC)c1OC | > 100 | 29.6
6 | O=C(O)c1c(-c2nccc3ccccc23)[nH]c(-c2ccccc2)c1S(=O)(=O)O | > 100 | 
7 | O=C(O)c1cc(O)c2c(c1)C(C1c3cc(C(=O)O)cc(O)c3C(=O)c3c(OC4OC(CO)C(O)C(O)C4O)cccc31)c1cccc(OC3OC(CO)C(O)C(O)C3O)c1C2=O (centres undefined) | > 100 | > 100
8 | O=C(CN(C1CCCCC1)C1CCCCC1)Nc1ccc(S(=O)(=O)c2ccc(NC(=O)CN(C3CCCCC3)C3CCCCC3)cc2)cc1 | 1.3 | 0.334
9 | O=c1[nH]c2cc(Cl)ccc2n1C1CCN(CCCC(c2ccc(F)cc2)c2ccc(F)cc2)CC1 | 4.21 | 1.88
10 | Cc1c[n+](Cc2ccc3ccccc3c2)cn1Cc1ccc2ccccc2c1 | 3.02 | 1.29
11 | Nc1nc(Br)nc2c1ncn2C1CC(O)C(CO)O1 (centres undefined) | > 100 | > 100
12 | CCOC(=O)N1CCN(C(=O)c2ccc(C(F)(F)F)nc2Nc2cc(Cl)ccc2C)CC1 | 41 | 12
13 | Cc1ccc(Nc2nc(N)c(C(=O)c3ccc(C#N)cc3)s2)cc1 | > 100 | 5.25
14 | CN1CCc2c(Sc3ccc(C(=O)NO)cc3)c3ccccc3n2C1 | 4.33 | 1.12
15 | COc1ccc(CNc2c3ccccc3nc3ccccc23)cc1OC | 4.98 | 1.95
16 | CN(C)c1ccc2nc3ccc(=O)cc-3sc2c1 | 4.18 | 0.333
17 | CC(=O)c1c(CBr)n([O-])c2ccccc2[n+]1=O | 17.4 | 4.48
18 | O=C(Nc1ccc(Cl)cc1F)c1cc(Br)ccc1O | 2.65 | 0.595
19 | COc1ccc(-n2cc(-c3ccc(Cl)c(Cl)c3)nc2SCc2cccc(C#N)c2)cc1 | > 100 | 16.4

Test system: MDA-MB-231 breast
Experiment: NCI tumour cell line growth inhibition, 48 h

Row | SMILES | TGI [µM] | GI50 [µM]
20 | N#CC1(C2SCCS2=O)C2=C(C(=O)c3ccccc3C2=O)N2CCCC21 (centres undefined) | 9.21 | 
21 | Cc1n(Cc2ccc3ccccc3c2)cc[n+]1Cc1ccc2ccccc2c1 | 2.43 | 1.03
22 | O=C1/C(=C\c2cccn2Cc2ccccc2)c2ccccc2N1c1c(Cl)cccc1Cl | > 100 | 5.83
23 | Cc1sc2nc(NCCc3c[nH]c4ccc(Cl)cc34)[nH]c(=O)c2c1C | 8.74 | 2.59
24 | COc1cc(/C=C2\C(=O)Nc3ccc(F)cc32)cc(OC)c1OC | 36.3 | 3.16
25 | O=C(O)c1c(-c2nccc3ccccc23)[nH]c(-c2ccccc2)c1S(=O)(=O)O | > 100 | 
26 | O=C(O)c1cc(O)c2c(c1)C(C1c3cc(C(=O)O)cc(O)c3C(=O)c3c(OC4OC(CO)C(O)C(O)C4O)cccc31)c1cccc(OC3OC(CO)C(O)C(O)C3O)c1C2=O (centres undefined) | > 100 | > 100
27 | O=C(CN(C1CCCCC1)C1CCCCC1)Nc1ccc(S(=O)(=O)c2ccc(NC(=O)CN(C3CCCCC3)C3CCCCC3)cc2)cc1 | 1.63 | 0.432
28 | O=c1[nH]c2cc(Cl)ccc2n1C1CCN(CCCC(c2ccc(F)cc2)c2ccc(F)cc2)CC1 | 3.12 | 1.68
29 | Cc1c[n+](Cc2ccc3ccccc3c2)cn1Cc1ccc2ccccc2c1 | 3.24 | 1.54
30 | Nc1nc(Br)nc2c1ncn2C1CC(O)C(CO)O1 (centres undefined) | > 100 | > 71.2
31 | CCOC(=O)N1CCN(C(=O)c2ccc(C(F)(F)F)nc2Nc2cc(Cl)ccc2C)CC1 | 21.9 | 5.22
32 | Cc1ccc(Nc2nc(N)c(C(=O)c3ccc(C#N)cc3)s2)cc1 | > 100 | 1.01
33 | CN1CCc2c(Sc3ccc(C(=O)NO)cc3)c3ccccc3n2C1 | 4.19 | 1.75
34 | COc1ccc(CNc2c3ccccc3nc3ccccc23)cc1OC | 7.32 | 2.37
35 | CN(C)c1ccc2nc3ccc(=O)cc-3sc2c1 | > 45.4 | 1.14
36 | CC(=O)c1c(CBr)n([O-])c2ccccc2[n+]1=O | 25 | 12.2
37 | O=C(Nc1ccc(Cl)cc1F)c1cc(Br)ccc1O | 8.12 | 0.968
38 | COc1ccc(-n2cc(-c3ccc(Cl)c(Cl)c3)nc2SCc2cccc(C#N)c2)cc1 | > 100 | 68

Test system: MOLT-4 leukemia
Experiment: NCI tumour cell line growth inhibition, 48 h

Row | SMILES | TGI [µM] | GI50 [µM]
39 | N#CC1(C2SCCS2=O)C2=C(C(=O)c3ccccc3C2=O)N2CCCC21 (centres undefined) | 19.7 | 
40 | Cc1n(Cc2ccc3ccccc3c2)cc[n+]1Cc1ccc2ccccc2c1 | 5.61 | 1.76
41 | O=C1/C(=C\c2cccn2Cc2ccccc2)c2ccccc2N1c1c(Cl)cccc1Cl | > 100 | > 100
42 | Cc1sc2nc(NCCc3c[nH]c4ccc(Cl)cc34)[nH]c(=O)c2c1C | 7.27 | 2.22
43 | COc1cc(/C=C2\C(=O)Nc3ccc(F)cc32)cc(OC)c1OC | > 100 | 9.26
44 | O=C(O)c1c(-c2nccc3ccccc23)[nH]c(-c2ccccc2)c1S(=O)(=O)O | > 100 | 
45 | O=C(O)c1cc(O)c2c(c1)C(C1c3cc(C(=O)O)cc(O)c3C(=O)c3c(OC4OC(CO)C(O)C(O)C4O)cccc31)c1cccc(OC3OC(CO)C(O)C(O)C3O)c1C2=O (centres undefined) | > 100 | > 100
46 | O=C(CN(C1CCCCC1)C1CCCCC1)Nc1ccc(S(=O)(=O)c2ccc(NC(=O)CN(C3CCCCC3)C3CCCCC3)cc2)cc1 | 2.7 | 0.293
47 | O=c1[nH]c2cc(Cl)ccc2n1C1CCN(CCCC(c2ccc(F)cc2)c2ccc(F)cc2)CC1 | 7.15 | 2.43
48 | Cc1c[n+](Cc2ccc3ccccc3c2)cn1Cc1ccc2ccccc2c1 | 4.06 | 1.7
49 | Nc1nc(Br)nc2c1ncn2C1CC(O)C(CO)O1 (centres undefined) | > 100 | 0.408
50 | CCOC(=O)N1CCN(C(=O)c2ccc(C(F)(F)F)nc2Nc2cc(Cl)ccc2C)CC1 | 64.8 | 6.63
51 | Cc1ccc(Nc2nc(N)c(C(=O)c3ccc(C#N)cc3)s2)cc1 | > 100 | 0.468
52 | CN1CCc2c(Sc3ccc(C(=O)NO)cc3)c3ccccc3n2C1 | 7.01 | 2.53
53 | COc1ccc(CNc2c3ccccc3nc3ccccc23)cc1OC | 25.6 | 2.25
54 | CN(C)c1ccc2nc3ccc(=O)cc-3sc2c1 | 26 | 1.4
55 | CC(=O)c1c(CBr)n([O-])c2ccccc2[n+]1=O | 15.7 | 4
56 | O=C(Nc1ccc(Cl)cc1F)c1cc(Br)ccc1O | 7.87 | 2.34
57 | COc1ccc(-n2cc(-c3ccc(Cl)c(Cl)c3)nc2SCc2cccc(C#N)c2)cc1 | > 100 | 19.4

Test system: OVCAR-8 ovarian
Experiment: NCI tumour cell line growth inhibition, 48 h

Row | SMILES | TGI [µM] | GI50 [µM]
58 | N#CC1(C2SCCS2=O)C2=C(C(=O)c3ccccc3C2=O)N2CCCC21 (centres undefined) | 7.83 | 
59 | Cc1n(Cc2ccc3ccccc3c2)cc[n+]1Cc1ccc2ccccc2c1 | 10.3 | 1.21
60 | O=C1/C(=C\c2cccn2Cc2ccccc2)c2ccccc2N1c1c(Cl)cccc1Cl | > 100 | > 100
61 | Cc1sc2nc(NCCc3c[nH]c4ccc(Cl)cc34)[nH]c(=O)c2c1C | 5.69 | 2.12
62 | COc1cc(/C=C2\C(=O)Nc3ccc(F)cc32)cc(OC)c1OC | > 100 | 64.2
63 | O=C(O)c1c(-c2nccc3ccccc23)[nH]c(-c2ccccc2)c1S(=O)(=O)O | > 100 | 
64 | O=C(O)c1cc(O)c2c(c1)C(C1c3cc(C(=O)O)cc(O)c3C(=O)c3c(OC4OC(CO)C(O)C(O)C4O)cccc31)c1cccc(OC3OC(CO)C(O)C(O)C3O)c1C2=O (centres undefined) | > 100 | > 100
65 | O=C(CN(C1CCCCC1)C1CCCCC1)Nc1ccc(S(=O)(=O)c2ccc(NC(=O)CN(C3CCCCC3)C3CCCCC3)cc2)cc1 | 3.71 | 0.701
66 | O=c1[nH]c2cc(Cl)ccc2n1C1CCN(CCCC(c2ccc(F)cc2)c2ccc(F)cc2)CC1 | 3.56 | 1.69
67 | Cc1c[n+](Cc2ccc3ccccc3c2)cn1Cc1ccc2ccccc2c1 | 4.01 | 1.89
68 | Nc1nc(Br)nc2c1ncn2C1CC(O)C(CO)O1 (centres undefined) | > 100 | 0.18
69 | CCOC(=O)N1CCN(C(=O)c2ccc(C(F)(F)F)nc2Nc2cc(Cl)ccc2C)CC1 | > 100 | 30.2
70 | Cc1ccc(Nc2nc(N)c(C(=O)c3ccc(C#N)cc3)s2)cc1 | > 100 | 0.644
71 | CN1CCc2c(Sc3ccc(C(=O)NO)cc3)c3ccccc3n2C1 | 5.42 | 1.69
72 | COc1ccc(CNc2c3ccccc3nc3ccccc23)cc1OC | 12.1 | 2.17
73 | CN(C)c1ccc2nc3ccc(=O)cc-3sc2c1 | > 100 | 0.651
74 | CC(=O)c1c(CBr)n([O-])c2ccccc2[n+]1=O | 40.7 | 18.1
75 | O=C(Nc1ccc(Cl)cc1F)c1cc(Br)ccc1O | > 37.4 | 1.13
76 | COc1ccc(-n2cc(-c3ccc(Cl)c(Cl)c3)nc2SCc2cccc(C#N)c2)cc1 | > 100 | 18.6

Test system: SF-539 CNS
Experiment: NCI tumour cell line growth inhibition, 48 h

Row | SMILES | TGI [µM] | GI50 [µM]
77 | N#CC1(C2SCCS2=O)C2=C(C(=O)c3ccccc3C2=O)N2CCCC21 (centres undefined) | 9.11 | 
78 | Cc1n(Cc2ccc3ccccc3c2)cc[n+]1Cc1ccc2ccccc2c1 | 7.14 | 1.37
79 | O=C1/C(=C\c2cccn2Cc2ccccc2)c2ccccc2N1c1c(Cl)cccc1Cl | > 100 | > 100
80 | Cc1sc2nc(NCCc3c[nH]c4ccc(Cl)cc34)[nH]c(=O)c2c1C | 13.4 | 3.37
81 | COc1cc(/C=C2\C(=O)Nc3ccc(F)cc32)cc(OC)c1OC | > 100 | > 100
82 | O=C(O)c1c(-c2nccc3ccccc23)[nH]c(-c2ccccc2)c1S(=O)(=O)O | > 100 | 
83 | O=C(O)c1cc(O)c2c(c1)C(C1c3cc(C(=O)O)cc(O)c3C(=O)c3c(OC4OC(CO)C(O)C(O)C4O)cccc31)c1cccc(OC3OC(CO)C(O)C(O)C3O)c1C2=O (centres undefined) | > 100 | > 100
84 | O=C(CN(C1CCCCC1)C1CCCCC1)Nc1ccc(S(=O)(=O)c2ccc(NC(=O)CN(C3CCCCC3)C3CCCCC3)cc2)cc1 | 1.46 | 0.37
85 | O=c1[nH]c2cc(Cl)ccc2n1C1CCN(CCCC(c2ccc(F)cc2)c2ccc(F)cc2)CC1 | 3 | 1.64
86 | Cc1c[n+](Cc2ccc3ccccc3c2)cn1Cc1ccc2ccccc2c1 | 3.05 | 1.57
87 | Nc1nc(Br)nc2c1ncn2C1CC(O)C(CO)O1 (centres undefined) | > 100 | 27.4
88 | CCOC(=O)N1CCN(C(=O)c2ccc(C(F)(F)F)nc2Nc2cc(Cl)ccc2C)CC1 | > 100 | 33.7
89 | Cc1ccc(Nc2nc(N)c(C(=O)c3ccc(C#N)cc3)s2)cc1 | 2.85 | 0.312
90 | CN1CCc2c(Sc3ccc(C(=O)NO)cc3)c3ccccc3n2C1 | 3.11 | 1.42
91 | COc1ccc(CNc2c3ccccc3nc3ccccc23)cc1OC | 11.3 | 2.82
92 | CN(C)c1ccc2nc3ccc(=O)cc-3sc2c1 |  | 0.287
93 | CC(=O)c1c(CBr)n([O-])c2ccccc2[n+]1=O | 24 | 11.2
94 | O=C(Nc1ccc(Cl)cc1F)c1cc(Br)ccc1O | 7.29 | 0.804
95 | COc1ccc(-n2cc(-c3ccc(Cl)c(Cl)c3)nc2SCc2cccc(C#N)c2)cc1 | 41.9 | 16.1

From PubChem BioAssay (NCI)
